This is an account of results in ChEMBL document CHEMBL1687887, “Evolution of potent and stable placental-growth-factor-1-targeting CovX-bodies from phage display peptide discovery” (J Med Chem, 2011).

The structures appear in SMILES notation. pIC50, pKd: −log10 of the molar value. Numbered stars: 1 amine (or outer) side, 2 acyl side, 3 side chain; on linkers, the order of the positions; unused ones are H or OH. Bridge positions count the residues as written; N and C are the ends. Square brackets hold non-standard residues; d marks the D form. Peptide text beside a SMILES is read from it. * marks the point of attachment. X2 = NCCCC[C@H](N[*:1])C(=O)NC(=O)COCC(=O)[*:2]; X1 = O=C(COCC(=O)*)Nc1ccc(CCC(=O)N2CCC2=O)cc1; X3 = O=C(CCc1ccc(N*)cc1)N1CCC1=O; Aad = N[C@@H](CCCC(=O)O)C(=O)O A value given as a limit tells only on which side of the number the result lay.

The target of the first experiment is T1, Placenta growth factor (Homo sapiens, UniProt P49763).
T1 sequence (P49763 whole entry): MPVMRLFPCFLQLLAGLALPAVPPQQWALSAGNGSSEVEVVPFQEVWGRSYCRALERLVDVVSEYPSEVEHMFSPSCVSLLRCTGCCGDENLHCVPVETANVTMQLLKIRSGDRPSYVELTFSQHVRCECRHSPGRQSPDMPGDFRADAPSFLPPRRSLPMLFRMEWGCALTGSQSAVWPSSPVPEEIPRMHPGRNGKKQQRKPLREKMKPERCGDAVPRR
In words: Inhibition of human PlGF-1-VEGFR-1 interaction by ELISA.
Settings: not given; call rule not given here
The compound `CSCC[C@H](NC(=O)[C@@H](NC(=O)[C@H](CCCCN)NC(=O)[C@@H]1CSSC[C@H](NC(=O)[C@@H](NC(=O)[C@H](CC(=O)O)NC(=O)[C@H](Cc2ccccc2)NC(C)=O)C(C)C)C(=O)N[C@@H](CC(N)=O)C(=O)N[C@@H](Cc2c[nH]c3ccccc23)C(=O)N[C@@H](C(C)C)C(=O)N[C@@H]([C@@H](C)O)C(=O)N[C@@H](CC(C)C)C(=O)N2CCC[C@H]2C(=O)N[C@@H](Cc2cnc[nH]2)C(=O)N1)C(C)C)C(N)=O` (Ac-FDVCNWVTLPHCKVM-NH2; disulfide 4-12) had a pIC50 of 6.00.
For the compound `CC[C@H](C)[C@H](NC(=O)[C@H](CC(=O)O)NC(=O)[C@H](Cc1ccc(O)cc1)NC(C)=O)C(=O)N[C@H]1CSSC[C@@H](C(=O)N[C@@H](CCCCN)C(=O)N[C@@H](C)C(=O)N[C@H](C(N)=O)C(C)C)NC(=O)[C@H](Cc2cnc[nH]2)NC(=O)[C@@H]2CCCN2C(=O)[C@H](CC(C)C)NC(=O)[C@H](CCCNC(=N)N)NC(=O)[C@H]([C@@H](C)CC)NC(=O)[C@H](Cc2ccc(O)cc2)NC(=O)[C@H](CCCCN)NC1=O` (Ac-YDICKYIRLPHCKAV-NH2; disulfide 4-12), the pIC50 was 5.05.
On the same count and under the same terms, under `CSCC[C@H](NC(=O)[C@@H](NC(=O)[C@H](CCCNC(=N)N)NC(=O)[C@@H]1CSSC[C@H](NC(=O)[C@@H](NC(=O)[C@H](CC(=O)O)NC(=O)[C@H](Cc2ccccc2)NC(C)=O)C(C)C)C(=O)N[C@@H](CC(N)=O)C(=O)N[C@@H](Cc2c[nH]c3ccccc23)C(=O)N[C@@H](C(C)C)C(=O)NCC(=O)N[C@@H](CC(C)C)C(=O)N2CCC[C@H]2C(=O)N[C@@H](Cc2cnc[nH]2)C(=O)N1)C(C)C)C(N)=O` (Ac-FDVCNWVGLPHCRVM-NH2; disulfide 4-12) stands 5.05; under `CSCC[C@H](NC(=O)[C@H](CCCCN)NC(=O)[C@@H]1CSSC[C@H](NC(=O)[C@@H](NC(=O)[C@H](CC(=O)O)NC(=O)[C@H](Cc2ccccc2)NC(C)=O)C(C)C)C(=O)N[C@@H](CC(N)=O)C(=O)N[C@@H](Cc2c[nH]c3ccccc23)C(=O)N[C@@H](C(C)C)C(=O)N[C@@H]([C@@H](C)O)C(=O)N[C@@H](CC(C)C)C(=O)N2CCC[C@H]2C(=O)N[C@@H](Cc2cnc[nH]2)C(=O)N1)C(=O)N[C@@H](CCCC(N)=O)C(N)=O` (Ac-FDVCNWVTLPHCKM[Aad](NH2)-NH2; disulfide 4-12), 6.00.
Turning to `CC[C@H](C)[C@H](NC(=O)[C@H](CC(=O)O)NC(=O)[C@H](Cc1ccc(O)cc1)NC(C)=O)C(=O)N[C@H]1CSSC[C@@H](C(=O)N[C@@H](CCCN=C(N)N)C(=O)N[C@@H](C)C(=O)N[C@H](C(N)=O)C(C)C)NC(=O)[C@H](Cc2cnc[nH]2)NC(=O)[C@@H]2CCCN2C(=O)[C@H](CC(C)C)NC(=O)[C@H](CCCNC(=N)N)NC(=O)[C@H]([C@@H](C)CC)NC(=O)[C@H](Cc2ccc(O)cc2)NC(=O)[C@H](CCCCN)NC1=O` (Ac-YDICKYIRLPHCRAV-NH2; disulfide 4-12), the pIC50 is 5.05.
Take `CSCC[C@H](NC(=O)[C@@H](NC(=O)[C@H](CCCN=C(N)N)NC(=O)[C@@H]1CSSC[C@H](NC(=O)[C@@H](NC(=O)[C@H](CC(=O)O)NC(=O)[C@H](Cc2ccccc2)NC(C)=O)C(C)C)C(=O)N[C@@H](CC(N)=O)C(=O)N[C@@H](Cc2c[nH]c3ccccc23)C(=O)N[C@@H](C(C)C)C(=O)NCC(=O)N[C@@H](CC(C)C)C(=O)N[C@@H](C)C(=O)N[C@@H](Cc2cnc[nH]2)C(=O)N1)C(C)C)C(N)=O` (Ac-FDVCNWVGLAHCRVM-NH2; disulfide 4-12): the pIC50 is 5.30.
The compound `CSCC[C@H](NC(=O)[C@H](Cc1ccccc1)NC(C)=O)C(=O)N[C@H](C(=O)N[C@H]1CSSC[C@@H](C(=O)N2CCC[C@H]2C(=O)N[C@@H](CCSC)C(=O)N[C@@H](CCC(N)=O)C(N)=O)NC(=O)[C@H](Cc2c[nH]c3ccccc23)NC(=O)[C@@H]2CCCN2C(=O)[C@H](CC(C)C)NC(=O)[C@H]([C@@H](C)O)NC(=O)[C@H](C(C)C)NC(=O)[C@H](Cc2ccc(O)cc2)NC(=O)[C@H](CC(N)=O)NC1=O)C(C)C` (Ac-FMVCNYVTLPWCPMQ-NH2; disulfide 4-12) showed a negative logarithm of the IC50 (pIC50) of 4.72.

The next experiment has as its target T1, Placenta growth factor. Nature of the experiment: Binding affinity to human PlGF-1.
Settings: not given
For the compound `N=C(N)NCCC[C@@H]1NC(=O)[C@H](CCCCNC(=O)COCC(=O)Nc2ccc(CCC(=O)N3CCC3=O)cc2)NC(=O)[C@@H](Cc2ccccc2)NC(=O)[C@H](CC(=O)O)NC(=O)CNC1=O`, the Kd result is on record as “Not Active”.

The experiment is the same for the next values; noted with them: read-out: Kd.
With `CSCC[C@H](NC(=O)[C@@H](NC(=O)[C@H](CCCCNC(C)=O)NC(=O)[C@@H]1CSSC[C@H](NC(=O)[C@@H](NC(=O)[C@H](CCCCNC(=O)COCC(=O)Nc2ccc(CCC(=O)N3CCC3=O)cc2)NC(=O)[C@H](Cc2ccccc2)NC(C)=O)C(C)C)C(=O)N[C@@H](CC(N)=O)C(=O)N[C@@H](Cc2c[nH]c3ccccc23)C(=O)N[C@@H](C(C)C)C(=O)N[C@@H]([C@@H](C)O)C(=O)N[C@@H](CC(C)C)C(=O)N2CCC[C@H]2C(=O)N[C@@H](Cc2cnc[nH]2)C(=O)N1)C(C)C)C(N)=O` (Ac-FK(X1)VCNWVTLPHCK(Ac)VM-NH2; disulfide 4-12), the pKd was < 6.00.
For the compound `CSCC[C@H](NC(=O)[C@@H](NC(=O)[C@H](CCCCNC(C)=O)NC(=O)[C@@H]1CSSC[C@H](NC(=O)[C@@H](NC(=O)[C@H](CC(=O)O)NC(=O)[C@H](Cc2ccccc2)NC(=O)COCC(=O)Nc2ccc(CCC(=O)N3CCC3=O)cc2)C(C)C)C(=O)N[C@@H](CC(N)=O)C(=O)N[C@@H](Cc2c[nH]c3ccccc23)C(=O)N[C@@H](C(C)C)C(=O)N[C@@H]([C@@H](C)O)C(=O)N[C@@H](CC(C)C)C(=O)N2CCC[C@H]2C(=O)N[C@@H](Cc2cnc[nH]2)C(=O)N1)C(C)C)C(N)=O` (X1-FDVCNWVTLPHCK(Ac)VM-NH2; disulfide 4-12), the pKd is < 6.00.
Consider `CC(=O)NCCCC[C@@H]1NC(=O)[C@@H](NC(=O)[C@@H](NC(=O)[C@H](CC(=O)O)NC(=O)[C@H](Cc2ccccc2)NC(C)=O)C(C)C)CSSC[C@@H](C(=O)N[C@@H](CCCCNC(C)=O)C(=O)N[C@H](C(=O)N[C@@H](CCCCN)C(=O)NC(=O)COCC(=O)Nc2ccc(CCC(=O)N3CCC3=O)cc2)C(C)C)NC(=O)[C@H](Cc2cnc[nH]2)NC(=O)[C@@H]2CCCN2C(=O)[C@H](CC(C)C)NC(=O)[C@H]([C@@H](C)O)NC(=O)[C@H](C(C)C)NC(=O)[C@H](Cc2c[nH]c3ccccc23)NC1=O` (Ac-FDVCK(Ac)WVTLPHCK(Ac)V[X2]-X3; disulfide 4-12), for which the pKd was 8.10.
On to `CC(=O)NCCCC[C@H](NC(=O)[C@@H]1CSSC[C@H](NC(=O)[C@@H](NC(=O)[C@H](CC(=O)O)NC(=O)[C@H](Cc2ccccc2)NC(C)=O)C(C)C)C(=O)N[C@@H](CC(N)=O)C(=O)N[C@@H](Cc2c[nH]c3ccccc23)C(=O)N[C@@H](C(C)C)C(=O)N[C@@H]([C@@H](C)O)C(=O)N[C@@H](CC(C)C)C(=O)N2CCC[C@H]2C(=O)N[C@@H](Cc2cnc[nH]2)C(=O)N1)C(=O)N[C@H](C(=O)N[C@@H](CCCCN)C(=O)NC(=O)COCC(=O)Nc1ccc(CCC(=O)N2CCC2=O)cc1)C(C)C` (Ac-FDVCNWVTLPHCK(Ac)V[X2]-X3; disulfide 4-12), for which the negative-log Kd (pKd) is 8.30.
The same measure, in the same setting: under `CSCC[C@H](NC(=O)[C@@H](NC(=O)[C@H](CCCCNC(C)=O)NC(=O)[C@@H]1CSSC[C@H](NC(=O)[C@@H](NC(=O)[C@H](CC(=O)O)NC(=O)[C@H](CCCCNC(=O)COCC(=O)Nc2ccc(CCC(=O)N3CCC3=O)cc2)NC(C)=O)C(C)C)C(=O)N[C@@H](CC(N)=O)C(=O)N[C@@H](Cc2c[nH]c3ccccc23)C(=O)N[C@@H](C(C)C)C(=O)N[C@@H]([C@@H](C)O)C(=O)N[C@@H](CC(C)C)C(=O)N2CCC[C@H]2C(=O)N[C@@H](Cc2cnc[nH]2)C(=O)N1)C(C)C)C(N)=O` (Ac-K(X1)DVCNWVTLPHCK(Ac)VM-NH2; disulfide 4-12) stands < 6.00.
